The results in this text go back to patent US20120172351A1, “NOVEL FUSED CYCLIC COMPOUND AND USE THEREOF” (priority 2009, published 2012).

In data set [1] the test system is Wistar fatty rat. The data set is described as follows: Oral glucose tolerance test in Wistar fatty rat. The class given is in vivo. The following applies: female Wistar fatty rats, 1 mg/kg oral, glucose 1 g/kg 1 hr after dosing; glucose AUC 0-120 min vs control group. The protocol:
The blood glucose increase suppressive action of the compound of the present invention was evaluated by an oral glucose tolerance test using Wistar fatty rat (TAKEDA RABICS).
The animal used was female Wistar fatty rat (prepared by TAKEDA RABICS, 18- to 22-week-old). The rats were bred under free access to a feed (CE-2, sold by CLEA Japan, Inc.).
Female Wistar fatty rats (18- to 22-week-old) were fasted for 19-21 hr, and the body weight was measured. Heparin (Ajinomoto Co., Inc.) was added as an anticoagulant, and aprotinin (SIGMA) was added as a protease inhibitor, and the blood was collected from the tail vein. 0.5% Methylcellulose (control group) or a 0.5% methylcellulose suspension of a test compound (1 mg/kg body weight) was orally administered to the rats of each group (6 per group) at 5 ml/kg and, 1 hr after the administration, a glucose solution (Otsuka Pharmaceutical Factory, Inc.) was orally administered at 1 g/5 ml/kg. […] The plasma glucose of the obtained plasma were measured by automatic analyzer 7080 (HITACHI). The glucose AUC was calculated from the obtained values by the formulas described in Experimental Example 2. Moreover, blood glucose lowering rate was calculated from the obtained AUC by the formulas described in Experimental Example 2. Statistical significance versus control was analyzed by Student's t-test.

Data set [2] has as its target T1, human derived GPR40 (Homo sapiens, UniProt O14842).
T1 construct: expressed in transfected cells
The data set is described as follows: Agonist action on human derived GPR40: change of intracellular calcium concentration in CHO cells (FLIPRtetra). Format: cell-based. The following applies: agonist activity of compound at 1 μM, relative to 10 μM γ linolenic acid as 100%, wave peak height; CHO cells stably expressing human GPR40. Here is the method: The CHO cell lines that stably expressed human derived GPR40 were used for the determination of the agonist activity. Unless particularly specified, the CHO cell lines were cultured in an α-MEM medium (Wako Pure Chemical Industries, Ltd.) containing 10% dialyzed fetal bovine serum (TRA Thermo Electron).
The cells cultured almost to confluent on the day before assay were rinsed with PBS (Invitrogen), detached with 0.5 mM EDTA (Wako Pure Chemical Industries, Ltd.), and recovered by centrifugation. The obtained cells were counted, diluted to 2×10^5 cells per 1 mL medium, dispensed by 40 μL per well to a 384 well black clear bottomplate (PE Biosystems), and cultured overnight in a CO2 incubator. Various test compounds were added to CHO cells prepared as mentioned above, and change of intracellular calcium concentration was measured using FLIPRtetra (Molecular Device). For the measurement by this device, a Calcium 4 assay kit (Molecular Devices: R8142) was used.
First, fatty acid free BSA at the final concentration of 0.1% was added to the buffer attached to the kit to prepare an assay buffer. Using the assay buffer, a loading solution with Fluo4 was prepared such that the final concentration of fatty acid free BSA was 0.1% and the final concentration of probenecid was 625 μM. On the other hand, a test compound was diluted with the assay buffer to a given concentration, and dispensed to the polypropylene 384-well plate (sample plate). The medium was removed from the cell culture plate, and the loading solution with Fluo4 was dispensed by 25 μL. After culture in a CO2 incubator at 37° C. for 40 min, a sample plate and a cell plate were simultaneously set on the FLIPRtetra, various test compounds were added by 25 μL according to the program of the device, and change of intracellular calcium concentration was measured. The agonist activity of each compound at 1 μM was calculated as a relative activity value to the activity of 10 μM γ linolenic acid as 100% from the wave peak height.
Background: Calcium assays in cells follow changes in intracellular calcium, usually with a dye or a luminescent sensor.

Marks after values point to notes of the source that are not given here.

T1 sequence (O14842 whole entry): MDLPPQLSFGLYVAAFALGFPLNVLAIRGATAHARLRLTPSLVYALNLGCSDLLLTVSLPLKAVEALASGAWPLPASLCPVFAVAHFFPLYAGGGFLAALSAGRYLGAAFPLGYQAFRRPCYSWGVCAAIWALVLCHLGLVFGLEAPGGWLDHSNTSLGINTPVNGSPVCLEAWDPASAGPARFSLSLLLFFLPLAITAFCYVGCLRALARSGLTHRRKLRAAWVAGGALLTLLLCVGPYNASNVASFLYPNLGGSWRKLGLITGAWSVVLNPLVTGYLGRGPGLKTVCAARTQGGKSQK

As to `Cc1cc(OC2CCS(=O)(=O)CC2)cc(C)c1-c1cccc2c1OC[C@H]2Nc1ccc2c(c1)OC[C@H]2CC(=O)O` [Example 9, [(3S)-6-{[(3S)-7-{4-[(1,1-dioxidotetrahydro-2H-thiopyran-4-yl)oxy]-2,6-dimethylphenyl}-2,3-dihydro-1-benzofuran-3-yl]amino}-2,3-dihydro-1-benzofuran-3-yl]acetic acid], the melting point (as a rule, the temperature of the solid-liquid transition) was determined as 176 °C. For the same molecule, the “Blood glucose lowering rate” value in data set [1] is given as −15.8%**. For the same molecule, the “activity (%)” value in data set [2] is reported as 128%.
